“Also recorded” adds a separate entry of the source.
Assays:
[1] = tested on: T. cruzi (CL strain); assay: Rapid in vivo assay: mouse footpad infection with tdTomato-expressing T. cruzi, single oral dose; set-up: species or system Trypanosoma cruzi; details: mice, reduced doses (FIG. 1B)
Procedure: Fluorescent intensity of the feet was measured at 2 dpi before compound administration and at 4 dpi in the Maestro in vivo imaging system equipped with the software Maestro 2.1.0 (CRi) as previously described (Fleau, et al., J Med Chem 62, 10362-10375 (2019)). The proliferation index was estimated as PI=[(T4d−T2d)/(mUnt4d−mUnt2d)]*100; where T4d and T2d are the fluorescence intensity of the feet of the treated animals at days 4 and 2 post-infection respectively; mUnt4d and mUnt2d are the average fluorescence intensity of the feet of the untreated animals at 4 and 2 dpi respectively.

[2] = tested on: CPSF3; assay: Resistance of CPSF3 overexpression line and CPSF3 mutant (intracellular amastigotes); type: cell-based, Trypanosoma cruzi
Procedure: The in vitro anti-T. cruzi amastiogote activity assay was performed and optimized based on the protocol described previously (Canavaci, et al., PLoS neglected tropical diseases 4, e740 (2010)). The change in tdTomato fluorescence intensity was determined as a measurement of growth over 72 hours of culture. For assaying drug effects on extracellular amastigotes, trypomastigotes were collected from infected Vero cell cultures and converted in acidic media as previously described (Tomlinson, et al., Parasitology 110 (Pt 5), 547-554 (1995)). Amastigotes (50,000/well) were incubated with 2-fold serial dilutions of compounds for 48 hours. The ATP production was used as an indication of growth in this case, and was measured by ATPlite Luminescence ATP Detection Assay System (PerkinElmer). Both fluorescence and luminescence were read using a BioTek Synergy Hybrid Multi-Mode reader equipped with the software Gene5 v 2.0 (BioTek). The dose-response curve was generated by […] analysis with GraphPad Prism v9.4.0 (GraphPad Software). IC50 was determined as the drug concentration that was required to inhibit 50% of growth compared to that of parasites with no drug exposure. […]

[3] = tested on: T. cruzi
Procedure: A total of 22 rhesus macaques that had been confirmed to be serologically- and PCR-positive for T. cruzi were utilized in these studies. Using 19 animals in the treatment group provided 85% power of detecting 100% efficacy. The 19 animals were treated with a 30 mg/kg dose of AN15368 delivered in food treats once a day for 60 days. The remaining three animals on the study were maintained as untreated control animals and received food treats but were not dosed with AN15368.
The selected dose of 30 mg/kg in NHP was determined based upon the following rationale. […] Under light-anesthesia/sedation, peripheral blood samples were collected from each animal prior to treatment and at 7 time points following. Blood analysis (CBC and serum chemistry assays) and physical exams to evaluate the health of the study animals were performed on each animal prior to the beginning of the study and also at three time points during the treatment protocol.
Blood samples from each macaque were collected at various time points and processed for quantification of T. cruzi DNA by real-time qPCR. Between 8-ml of whole blood collected in EDTA anticoagulant tubes was subjected to DNA extraction using the Omega E.Z.N.A. Blood DNA Maxi Kit (Omega Bio-Tek), following the manufacturer's instructions for up to 10 ml whole blood and using a total of 650 μl of elution buffer. Each round of extractions included a negative (no-template) control comprised of 10 ml PBS. The concentration of DNA in the eluted solution was quantified after each extraction using an Epoch microplate spectrophotometer (BioTek).
DNA from each sample was then subjected to a series of two qPCR assays for detection of T. cruzi satellite DNA. […] Positive (DNA extracted from T. cruzi Sylvio X10 clone 4, American Type Culture Collection, ATCC #50800, known concentration 1.7×10^−3 parasite equivalents) and negative (water) controls were included in each PCR plate for both assays. C1000 Touch Bio-Rad CFX96 real-time PCR detection system was used for both assays under the following cycling conditions: (i) initial denaturation, 95°, 3 min; (ii) denaturation, 95° C., 15 s; (iii) annealing, 58° C., 1 min; (iv)×50 cycles. FAM and VIC channels were selected for each read.
Frozen tissues were screened for T. cruzi DNA using 8 mm biopsies (Sklar instruments #96-1130), collecting 3 to 10 individual ˜100 μl tissue punches for each tissue type and one of more pooled sample consisting of five punches from different areas of the tissue, totaling ˜500 μl per pool. The tissues sampled included liver, heart, fat, esophagus, quadricep, bicep, large intestine, and brain, as well as tongue and spleen in a few instances. Two individual and one pooled sample of tissues from an uninfected macaque was collected for each sampling batch. DNA from macaque tissue was extracted and analyzed as previously described (Bustamante, et al., Sci Transl Med 12 (2020)) with the exceptions that the purification was scaled up to accommodate the larger amount of tissue in the pooled samples and the range for the standards was 2.6×10^2-2.6×10^−3 parasite equivalents using the kDNA minicircle S35 and S36 primers.

[4] = macaques, 30 mg/kg once a day for 60 days, post-treatment time points, 30 mg/kg

Row | SMILES | reduction of established focal footpad infection by a single oral dose [1] | increase in resistance on overexpression of CPSF3 ([2]; intracellular amastigotes) | effect of CPSF3 Asn232 to His mutation ([2]; intracellular amastigotes (FIG. 5D)) | T. cruzi DNA by PCR in post-necropsy tissues ([3]; 9 treated macaques, 84-99 sample sites/animal) | overall safety / toxicity ([3]; 60 day course of treatment in NHPs) | adverse events ([3]; in vivo) | mean ALT and ALP, levels of lymphocytes and monocytes in blood ([3]; in vivo) | cure of chronically infected rhesus macaques ([3]; in words (FIGS. 4A-4K)) | culture of parasites from blood (hemoculture) [3, 4] | parasite DNA in blood (PCR) [3, 4] | efficacy / cure ([3]; naturally infected NHPs, 30 mg/kg, 60 days) [%]
1 | Cc1c(C(=O)N[C@H](C(=O)OCc2ccc(F)c(F)c2)C(C)C)ccc2c1B(O)OC2 [AN14353] | activity at reduced doses |  |  |  |  |  |  |  |  |  | 
2 | Cc1c(C(=O)N[C@H](C(=O)OCC2CCOCC2)C(C)C)ccc2c1B(O)OC2 [AN15368] |  | 3-5 fold | conferred resistance | negative | no overt safety or reproductive health concerns; also recorded: no overt toxicity | No adverse events | mildly elevated | uniformly cures chronically infected rhesus macaques | remained negative | remained negative | 100

Source: patent US20240133884A1, “COMPOSITIONS AND METHODS FOR DETECTING TRYPANOSOMA CRUZI INFECTION” (University of Georgia Research Foundation, Inc., priority 2022, published 2024)
